Assay: method code SF-GLC, from DOI: 10.1016/0045-6535(89)90321-4

SMILES | logP
Clc1cc(Cl)c2oc3c(Cl)c(Cl)c(Cl)cc3c2c1 | 6.59
Clc1cc(Cl)c2c(c1)oc1ccc(Cl)c(Cl)c12 | 6.25
Clc1cc(Cl)c2c(c1)oc1c(Cl)cc(Cl)cc12 | 6.37
Clc1cc2c(cc1Cl)Oc1c(Cl)c(Cl)cc(Cl)c1O2 | 6.2
Clc1cc(Cl)c2c(c1)Oc1c(cc(Cl)c(Cl)c1Cl)O2 | 6.53
Clc1ccc2c(c1)Oc1c(Cl)c(Cl)cc(Cl)c1O2 | 6.25
Clc1cc2c(oc3c(Cl)c(Cl)c(Cl)c(Cl)c32)c(Cl)c1Cl | 7.92
Clc1cc(Cl)c2c(oc3cccc(Cl)c32)c1Cl | 5.89
Clc1cc(Cl)c2c(c1)oc1cc(Cl)cc(Cl)c12 | 6.34
Clc1c(Cl)c(Cl)c2c(oc3ccccc32)c1Cl | 6.17
Clc1ccc2oc3c(Cl)c(Cl)cc(Cl)c3c2c1 | 6.13
Clc1cc(Cl)c2oc3c(Cl)cc(Cl)cc3c2c1 | 6.17
Clc1ccc2c(oc3c(Cl)cc(Cl)c(Cl)c32)c1Cl | 6.27
Clc1cc2c(cc1Cl)Oc1c(Cl)ccc(Cl)c1O2 | 6.39
Clc1cc2oc3cccc(Cl)c3c2c(Cl)c1Cl | 6.06
Clc1ccc(Cl)c2c1oc1c(Cl)ccc(Cl)c12 | 5.6
Clc1cc(Cl)c2c(oc3c(Cl)ccc(Cl)c32)c1Cl | 6.34
Clc1ccc2c(c1)oc1c(Cl)c(Cl)c(Cl)c(Cl)c12 | 6.53
Clc1cc(Cl)c2c(c1Cl)Oc1c(Cl)cccc1O2 | 6.1
Clc1cc2oc3c(Cl)cccc3c2c(Cl)c1Cl | 6.15
Clc1ccc2c(c1)oc1c(Cl)c(Cl)cc(Cl)c12 | 6.23
Clc1cc2c(oc3c(Cl)ccc(Cl)c32)c(Cl)c1Cl | 6.53
Clc1cc2c(oc3c(Cl)cccc32)c(Cl)c1Cl | 6.11
Clc1cc(Cl)c2oc3c(Cl)ccc(Cl)c3c2c1Cl | 6.59
Clc1cc2oc3c(Cl)c(Cl)ccc3c2cc1Cl | 6.31

SMILES | logP
Clc1ccc2c(c1)Oc1c(Cl)c(Cl)c(Cl)c(Cl)c1O2 | 6.6
Clc1ccc2c(c1)Oc1c(cc(Cl)c(Cl)c1Cl)O2 | 6.1
Clc1ccc2c(oc3c(Cl)ccc(Cl)c32)c1Cl | 6.15
Clc1cc2c(cc1Cl)Oc1cc(Cl)c(Cl)cc1O2 | 6.42
Clc1cc(Cl)c2c(c1)Oc1c(Cl)c(Cl)c(Cl)c(Cl)c1O2 | 6.85
Clc1cc2c(c(Cl)c1Cl)Oc1c(Cl)cccc1O2 | 6.39
Clc1cc2c(oc3ccc(Cl)c(Cl)c32)c(Cl)c1Cl | 6.42
Clc1cc2c(oc3cccc(Cl)c32)c(Cl)c1Cl | 6.17
Clc1cc(Cl)c2oc3c(Cl)c(Cl)cc(Cl)c3c2c1 | 6.24
Clc1cc2oc3c(Cl)c(Cl)ccc3c2c(Cl)c1Cl | 6.26
Clc1cc(Cl)c2oc3cc(Cl)c(Cl)c(Cl)c3c2c1 | 6.33
Clc1cc2c(c(Cl)c1Cl)Oc1cccc(Cl)c1O2 | 6.86
Clc1cc(Cl)c2c(c1Cl)Oc1cccc(Cl)c1O2 | 6.1
Clc1ccc2c(c1)oc1c(Cl)c(Cl)c(Cl)cc12 | 6.06
Clc1cc(Cl)c2oc3c(Cl)cc(Cl)c(Cl)c3c2c1 | 6.34
Clc1cc(Cl)c2c(c1)oc1c(Cl)cc(Cl)c(Cl)c12 | 6.19
Clc1cccc2c1Oc1c(Cl)c(Cl)c(Cl)c(Cl)c1O2 | 6.3
Clc1cc(Cl)c2c(c1)Oc1ccc(Cl)c(Cl)c1O2 | 6.86
Clc1cc2oc3ccc(Cl)c(Cl)c3c2cc1Cl | 6.23
Clc1ccc2c(oc3ccc(Cl)c(Cl)c32)c1Cl | 6.25
Clc1cc(Cl)c2c(c1Cl)Oc1c(Cl)ccc(Cl)c1O2 | 6.6
Clc1cc(Cl)c2c(c1)oc1c(Cl)c(Cl)cc(Cl)c12 | 6.33
Clc1ccc2c(oc3c(Cl)c(Cl)cc(Cl)c32)c1Cl | 6.19
Clc1cc(Cl)c2c(c1)oc1cc(Cl)c(Cl)cc12 | 6.34
Clc1cc(Cl)c2c(c1)Oc1cc(Cl)cc(Cl)c1O2 | 6.39

SMILES | logP
Clc1cc(Cl)c2c(c1)Oc1cc(Cl)c(Cl)cc1O2 | 6.3
Clc1cc2c(c(Cl)c1Cl)Oc1c(Cl)cc(Cl)c(Cl)c1O2 | 7.59
Clc1cc(Cl)c2c(c1Cl)Oc1c(Cl)cc(Cl)c(Cl)c1O2 | 6.85
Clc1cc2c(oc3c(Cl)c(Cl)ccc32)c(Cl)c1Cl | 6.47
Clc1cc2oc3c(Cl)cc(Cl)c(Cl)c3c2cc1Cl | 6.26
Clc1cc(Cl)c2c(c1)Oc1c(Cl)ccc(Cl)c1O2 | 6.25
Clc1cc2c(c(Cl)c1Cl)Oc1c(Cl)ccc(Cl)c1O2 | 6.24
Clc1cc2c(cc1Cl)Oc1c(cc(Cl)c(Cl)c1Cl)O2 | 6.64
Clc1cc(Cl)c2c(c1)Oc1c(Cl)cc(Cl)cc1O2 | 6.29
Clc1cc(Cl)c2c(oc3c(Cl)cccc32)c1Cl | 6.31
Clc1cc(Cl)c2oc3c(Cl)c(Cl)ccc3c2c1 | 6.25
Clc1cc2c(cc1Cl)Oc1c(ccc(Cl)c1Cl)O2 | 6.38
Clc1ccc2c(c1)Oc1c(Cl)cc(Cl)c(Cl)c1O2 | 6.25
Clc1ccc2c(c1)Oc1cc(Cl)c(Cl)c(Cl)c1O2 | 6.1
Clc1cc(Cl)c2oc3cc(Cl)c(Cl)cc3c2c1 | 6.73
Clc1cc(Cl)c2c(c1Cl)Oc1c(Cl)c(Cl)cc(Cl)c1O2 | 6.85
Clc1ccc(Cl)c2c1Oc1c(Cl)ccc(Cl)c1O2 | 6.38
Clc1cc2c(c(Cl)c1Cl)Oc1c(Cl)c(Cl)cc(Cl)c1O2 | 7.59
Clc1cc(Cl)c2c(c1)Oc1c(ccc(Cl)c1Cl)O2 | 6.43
Clc1cc(Cl)c2c(oc3ccc(Cl)c(Cl)c32)c1Cl | 6.51
Clc1cc(Cl)c2c(c1)Oc1cc(Cl)c(Cl)c(Cl)c1O2 | 6.4
Clc1cc2c(c(Cl)c1Cl)Oc1ccc(Cl)c(Cl)c1O2 | 6.74
Clc1ccc2oc3cc(Cl)c(Cl)c(Cl)c3c2c1 | 6.15
Clc1ccc2oc3c(Cl)cc(Cl)c(Cl)c3c2c1 | 6.31
Clc1ccc2oc3c(Cl)c(Cl)c(Cl)c(Cl)c3c2c1 | 6.79
